Data taken from patent publication US20050004126A1 (priority 2001, published 2005).

Molecular target: MMP-13CD (catalytic domain of collagenase 3) (Homo sapiens, UniProt P45452)
Test: biochemical
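Also: inhibition of enzymatic thiopeptolide substrate cleavage (100 µM) in pH 6.0 MES buffer with CaCl2 and DTNB, comparing hydrolysis with versus without inhibitor.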

Row | IC50 | Compound
1 | 29 nM | O=C(OCc1ccccc1)c1ccc2[nH]c(=O)n(Cc3ccccc3)c(=O)c2c1 [Synthesis Example 41, Benzyl 3-benzyl-2,4-dioxo-1,2,3,4-tetrahydroquinazoline-6-carboxylate]
2 | 11 nM | O=C(OCc1ccncc1)c1ccc2[nH]c(=O)n(Cc3ccccc3)c(=O)c2c1 [Synthesis Example 43, 4-Pyridylmethyl 3-benzyl-2,4-dioxo-1,2,3,4-tetrahydroquinazoline-6-carboxylate]
3 | 7 nM | O=C(OCc1ccc2c(c1)OCO2)c1ccc2[nH]c(=O)n(Cc3ccccc3)c(=O)c2c1 [Synthesis Example 45, Benzo[1,3]dioxol-5-ylmethyl 3-benzyl-2,4-dioxo-1,2,3,4-tetrahydroquinazoline-6-carboxylate]
4 | 2.5 nM | Cn1c(=O)n(Cc2ccccc2)c(=O)c2cc(C(=O)OCc3ccc4c(c3)OCO4)ccc21 [Synthesis Example 46, Benzo[1,3]dioxol-5-ylmethyl 3-benzyl-1-methyl-2,4-dioxo-1,2,3,4-tetrahydroquinazoline-6-carboxylate]
5 | 7 nM | Cn1c(=O)n(Cc2ccccc2)c(=O)c2cc(C(=O)NCc3ccc4c(c3)OCO4)cnc21 [Synthesis Example 49, 3-Benzyl-1-methyl-2,4-dioxo-1,2,3,4-tetrahydro-pyrido[2,3-d]pyrimidine-6-carboxylic acid (1,3-benzodioxol-5-ylmethyl)-amide]

The next lines start with the compound.

Row | Compound | IC50
6 | Cn1c(=O)n(C/C=C/c2ccccc2)c(=O)c2cc(C(=O)NCc3ccc4c(c3)OCO4)ccc21 [Synthesis Example 40, 1-Methyl-2,4-dioxo-3-((E)-3-phenylallyl)-1,2,3,4-tetrahydroquinazoline-6-carboxylic acid (benzo[1,3]dioxol-5-ylmethyl)amide] | 22 nM
7 | Cn1c(=O)n(Cc2ccccc2)c(=O)c2cc(C(=O)OCc3ccccc3)ccc21 [Synthesis Example 42, Benzyl 3-benzyl-1-methyl-2,4-dioxo-1,2,3,4-tetrahydroquinazoline-6-carboxylate] | 31 nM
8 | Cn1c(=O)n(Cc2ccccc2)c(=O)c2cc(C(=O)OCc3ccncc3)ccc21 [Synthesis Example 44, 4-Pyridylmethyl 3-benzyl-1-methyl-2,4-dioxo-1,2,3,4-tetrahydroquinazoline-6-carboxylate] | 4 nM
9 | O=C(OCc1ccncc1)c1ccc2[nH]c(=O)n(Cc3cccs3)c(=O)c2c1 [Synthesis Example 47, 4-Pyridylmethyl 2,4-dioxo-3-thien-2-ylmethyl-1,2,3,4-tetrahydroquinazoline-6-carboxylate] | 16 nM
10 | COc1ccc(CNC(=O)c2cnc3c(c2)c(=O)n(Cc2ccc(C(=O)O)cc2)c(=O)n3C)cc1 [Synthesis Example 50, 4-[6-(4-Methoxy-benzylcarbamoyl)-1-methyl-2,4-dioxo-1,4-dihydro-2H-pyrido[2,3-d]pyrimidin-3-ylmethyl]-benzoic acid] | 1.6 nM
11 | COc1ccc(CNC(=O)c2cnc3c(c2)c(=O)n(Cc2ccc(C#N)cc2)c(=O)n3C)cc1 [Synthesis Example 51, 3-(4-Cyano-benzyl)-1-methyl-2,4-dioxo-1,2,3,4-tetrahydro-pyrido[2,3-d]pyrimidine-6-carboxylic acid 4-methoxy-benzylamide] | 16 nM
12 | COc1ccc(CNC(=O)c2cnc3c(c2)c(=O)n(Cc2ccc(F)cc2)c(=O)n3C)cc1 [Synthesis Example 52, 3-(4-Fluoro-benzyl)-1-methyl-2,4-dioxo-1,2,3,4-tetrahydro-pyrido[2,3-d]pyrimidine-6-carboxylic acid 4-methoxy-benzylamide] | 32 nM
13 | Cn1c(=O)n(Cc2ccccc2)c(=O)c2cc(C(=O)NCc3ccc4c(c3)OCO4)ncc21 [Synthesis Example 53, 3-Benzyl-1-methyl-2,4-dioxo-1,2,3,4-tetrahydro-pyrido[3,4-d]pyrimidine-6-carboxylic acid (1,3-benzodioxol-5-ylmethyl)-amide] | 1 nM
